In patent US20190192699A1, “NUCLEAR IMAGING AND RADIOTHERAPEUTICS AGENTS TARGETING CARBONIC ANHYDRASE IX AND USES THEREOF” (THE JOHNS HOPKINS UNIVERSITY, priority 2016, published 2019):
“Also recorded” adds a separate entry of the source.

What was measured:
CAIX = CAIX (Homo sapiens, UniProt Q16790); test: In vitro uptake of [177Lu]XYIMSR-01; format: cell-based; parameters: host or cells: ccRCC tumours in patients
[1] = tested on: CAIX-expressing SK-RC-52 tumors; test: SPECT/CT imaging of [177Lu]XYIMSR-01; format: in vivo, mice; conditions: intravenous
Procedure: (§1) Cell Lines and Mouse Models. Animal experiments were performed in accordance with protocols approved by the Johns Hopkins Animal Care and Use Committee (ACUC). Six-week-old female NOD/SCID mice were purchased from the Animal Resource Core of the Sidney Kimmel Comprehensive Cancer Center of Johns Hopkins and were subcutaneously injected in the lower left flank or upper right flank with 1×10^6 SK-RC-52 cells in RPMI 1640 GlutaMAX™ media (Life Technologies, Frederick, Md.) supplemented with 1% fetal bovine serum (FBS). Mice were monitored for tumor size and used for SPECT/CT imaging when the size of the tumor reached 100 mm^3.
SPECT/CT imaging of [^177Lu]XYIMSR-01. Mice were injected with 1.7 mCi of [^177Lu]XYIMSR-01 in 250 uL of PBS (pH7.0) intravenously, anesthetized under 3% isofluorane prior to being placed on the scanner bed and kept warm with an external light source while being scanned. Isofluorane levels were decreased to 1% throughout the scanning process in order to ensure mouse survival. Imaging of mice was then carried out using a CT-equipped Gamma Medica-Ideas SPECT scanner (Northridge, Calif.). A CT scan was performed at the end of each SPECT scan for anatomical co-registration. CT and SPECT scans were performed at 1, 4, 8, 24, and 48 hrs post injection of the [^177Lu]XYIMSR-01. Obtained data sets were subsequently reconstructed using the provided Gamma Medica-Ideas software. […]

SK-RC-52 xenografts = test: Biodistribution of [111In]XYIMSR-01 and [177Lu]XYIMSR-01; format: in vivo, mice
Procedure: as §1
Biodistribution of [^111In]XYIMSR-01 and [^177Lu]XYIMSR-01. Mice bearing SK-RC-52 xenografts at lower left flank were injected intravenously with 740 kBq (20 μCi) of [^111In]XYIMSR-01, or [^177Lu]XYIMSR-01 in 200 μL of PBS. For competitive blocking, same tumor bearing mice were injected with 740 kBq (20 μCi) of [^111In]XYIMSR-01 and 200 nmole of 1 in 200 μL of PBS. At 1 h, 4 h, 8 h, 24 h and 48 h post-injection, mice were sacrificed by cervical dislocation and the blood was immediately collected by cardiac puncture. Heart, lungs, pancreas, spleen, fat, brain, muscle, small intestines, liver, stomach, kidney, urinary bladder, and tumor were collected. Each organ was weighed and the tissue radioactivity was measured with an automated gamma counter (1282 Compugamma CS, Pharmacia/LKBNuclear, Inc., Mt. Waverly, Vic. Australia). The percentage of injected dose per gram of tissue (% ID/g) was calculated by comparison with samples of a standard dilution of the initial dose. All measurements were corrected for radioactive decay.
Data were expressed as mean±standard deviation (SD). Prism software (GraphPAD, San Diego, Calif.) was used to determine statistical significance. Statistical significance was calculated using a paired t test. P-values […] were considered significant.

[2] = 24 hr + Block (200 nmole of 1 co-injected)

CC(CCC(=O)N[C@@H](CC(=O)N[C@@H](CC(=O)N[C@@H](CCCCn1cc(CCCC(=O)Nc2nnc(S(N)(=O)=O)s2)nn1)C(=O)NCCOCCOCCNC(=O)CN1CCN(CC(=O)[O-])CCN(CC(=O)[O-])CCN(CC(=O)[O-])CC1)C(=O)O)C(=O)O)(c1ccc(O)cc1)c1ccc(O)cc1.[177Lu+3] [[^177Lu]XYIMSR-01]
uptake in vitro (CAIX): CAIX specific uptake in vitro | SPECT/CT tumor imaging finding [1]: radiotracer uptake in tumor as early as 1 h post-injection; also recorded: tumor visualization by 1 h post-injection | Biodistribution: Bladder (SK-RC-52 xenografts; 1 hr post-injection): 26.55 ± 11.08 % ID/g | Biodistribution: Blood (SK-RC-52 xenografts; 1 hr post-injection): 0.55 ± 0.06 % ID/g | Biodistribution: Brain (SK-RC-52 xenografts; 1 hr post-injection): 0.49 ± 0.08 % ID/g | Biodistribution: Fat (SK-RC-52 xenografts; 1 hr post-injection): 1.07 ± 0.58 % ID/g | Biodistribution: Heart (SK-RC-52 xenografts; 1 hr post-injection): 3.59 ± 0.73 % ID/g | Biodistribution: Kidney (SK-RC-52 xenografts; 1 hr post-injection): 40.77 ± 6.68 % ID/g | Biodistribution: Liver (SK-RC-52 xenografts; 1 hr post-injection): 4.15 ± 0.39 % ID/g | Biodistribution: Lung (SK-RC-52 xenografts; 1 hr post-injection): 23.72 ± 6.49 % ID/g | Biodistribution: Muscle (SK-RC-52 xenografts; 1 hr post-injection): 1.42 ± 0.40 % ID/g | Biodistribution: Pancreas (SK-RC-52 xenografts; 1 hr post-injection): 2.03 ± 0.25 % ID/g | Biodistribution: Small intestine (SK-RC-52 xenografts; 1 hr post-injection): 6.11 ± 0.68 % ID/g | Biodistribution: Spleen (SK-RC-52 xenografts; 1 hr post-injection): 0.29 ± 0.07 % ID/g | Biodistribution: Stomach (SK-RC-52 xenografts; 1 hr post-injection): 12.20 ± 1.66 % ID/g | Biodistribution: Tumor (SK-RC-52 xenografts; 1 hr post-injection): 26.91 ± 6.06 % ID/g | Tumor/Blood ratio (SK-RC-52 xenografts; 1 hr post-injection): 47.9 ± 13.4 | Tumor/Kidney ratio (SK-RC-52 xenografts; 1 hr post-injection): 0.6 ± 0.2 | Tumor/Muscle ratio (SK-RC-52 xenografts; 1 hr post-injection): 18.8 ± 5.0 | Biodistribution: Bladder (SK-RC-52 xenografts; 4 hr post-injection): 6.60 ± 3.66 % ID/g | Biodistribution: Blood (SK-RC-52 xenografts; 4 hr post-injection): 0.18 ± 0.02 % ID/g | Biodistribution: Brain (SK-RC-52 xenografts; 4 hr post-injection): 0.33 ± 0.04 % ID/g | Biodistribution: Fat (SK-RC-52 xenografts; 4 hr post-injection): 0.56 ± 0.14 % ID/g | Biodistribution: Heart (SK-RC-52 xenografts; 4 hr post-injection): 1.52 ± 0.54 % ID/g | Biodistribution: Kidney (SK-RC-52 xenografts; 4 hr post-injection): 19.17 ± 2.82 % ID/g | Biodistribution: Liver (SK-RC-52 xenografts; 4 hr post-injection): 1.79 ± 0.44 % ID/g | Biodistribution: Lung (SK-RC-52 xenografts; 4 hr post-injection): 10.35 ± 1.86 % ID/g | Biodistribution: Muscle (SK-RC-52 xenografts; 4 hr post-injection): 0.65 ± 0.19 % ID/g | Biodistribution: Pancreas (SK-RC-52 xenografts; 4 hr post-injection): 0.99 ± 0.19 % ID/g | Biodistribution: Small intestine (SK-RC-52 xenografts; 4 hr post-injection): 2.64 ± 0.17 % ID/g | Biodistribution: Spleen (SK-RC-52 xenografts; 4 hr post-injection): 0.15 ± 0.03 % ID/g | Biodistribution: Stomach (SK-RC-52 xenografts; 4 hr post-injection): 6.06 ± 1.57 % ID/g | Biodistribution: Tumor (SK-RC-52 xenografts; 4 hr post-injection): 26.28 ± 4.25 % ID/g | Tumor/Blood ratio (SK-RC-52 xenografts; 4 hr post-injection): 150.3 ± 34.6 | Tumor/Kidney ratio (SK-RC-52 xenografts; 4 hr post-injection): 1.4 ± 0.4 | Tumor/Muscle ratio (SK-RC-52 xenografts; 4 hr post-injection): 43.7 ± 16.8 | Biodistribution: Bladder (SK-RC-52 xenografts; 8 hr post-injection): 6.00 ± 3.52 % ID/g | Biodistribution: Blood (SK-RC-52 xenografts; 8 hr post-injection): 0.16 ± 0.05 % ID/g | Biodistribution: Brain (SK-RC-52 xenografts; 8 hr post-injection): 0.44 ± 0.08 % ID/g | Biodistribution: Fat (SK-RC-52 xenografts; 8 hr post-injection): 0.46 ± 0.17 % ID/g | Biodistribution: Heart (SK-RC-52 xenografts; 8 hr post-injection): 1.49 ± 0.59 % ID/g | Biodistribution: Kidney (SK-RC-52 xenografts; 8 hr post-injection): 18.99 ± 6.14 % ID/g | Biodistribution: Liver (SK-RC-52 xenografts; 8 hr post-injection): 1.87 ± 0.77 % ID/g | Biodistribution: Lung (SK-RC-52 xenografts; 8 hr post-injection): 8.87 ± 3.30 % ID/g | Biodistribution: Muscle (SK-RC-52 xenografts; 8 hr post-injection): 0.47 ± 0.18 % ID/g | Biodistribution: Pancreas (SK-RC-52 xenografts; 8 hr post-injection): 1.03 ± 0.50 % ID/g | Biodistribution: Small intestine (SK-RC-52 xenografts; 8 hr post-injection): 3.67 ± 0.93 % ID/g | Biodistribution: Spleen (SK-RC-52 xenografts; 8 hr post-injection): 0.29 ± 0.05 % ID/g | Biodistribution: Stomach (SK-RC-52 xenografts; 8 hr post-injection): 6.15 ± 2.65 % ID/g | Biodistribution: Tumor (SK-RC-52 xenografts; 8 hr post-injection): 27.48 ± 4.32 % ID/g | Tumor/Blood ratio (SK-RC-52 xenografts; 8 hr post-injection): 178.6 ± 36.6 | Tumor/Kidney ratio (SK-RC-52 xenografts; 8 hr post-injection): 1.5 ± 0.3 | Tumor/Muscle ratio (SK-RC-52 xenografts; 8 hr post-injection): 65.0 ± 19.0 | Biodistribution: Bladder (SK-RC-52 xenografts; [2]): 0.73 ± 0.55 % ID/g | Biodistribution: Blood (SK-RC-52 xenografts; [2]): 0.04 ± 0.02 % ID/g | Biodistribution: Brain (SK-RC-52 xenografts; [2]): 0.04 ± 0.01 % ID/g | Biodistribution: Fat (SK-RC-52 xenografts; [2]): 0.03 ± 0.03 % ID/g | Biodistribution: Heart (SK-RC-52 xenografts; [2]): 0.08 ± 0.04 % ID/g | Biodistribution: Kidney (SK-RC-52 xenografts; [2]): 1.54 ± 1.44 % ID/g | Biodistribution: Liver (SK-RC-52 xenografts; [2]): 0.46 ± 0.34 % ID/g | Biodistribution: Lung (SK-RC-52 xenografts; [2]): 0.73 ± 0.58 % ID/g
